According to patent US5359073A, “Substituted-phenyl (N,N'-cycloalkyl/alkyl carboxamide)-1H/3H-imidazo[4,5-b]pyridine compounds as PAF antagonists” (G. D. Searle & Co., priority 1992, dated 1994):

Experiments:
[1] = target: T1, PAF receptor (human platelet membrane) (Homo sapiens, UniProt P25105); test: Assay A: Human Platelet Receptor Binding (inhibition of specific [^3 H]PAF binding to human platelet membrane preparation); conditions: for IC50: human platelet membranes, 0.75 nM [^3 H]PAF, 30 minutes at 24° C., pH 7.4
T1 construct: The platelets were broken by freezing in a dry ice-ethanol bath; tissue Lifesource, Inc. (Glenview, Ill.); host or cells: human packed platelets (membrane preparation)
Description: Compounds of the invention were evaluated for their ability to inhibit specific binding of [^3 H]PAF to human platelet membrane preparation. Human packed platelets were obtained from Lifesource, Inc. (Glenview, Ill.) and washed 3 times with 10 mM Trizma pH 7.0, 2 mM EDTA (dipotassium salt), 150 mM KCL and then once with 10 mM Trizma 7.4, 20 mM CaCL2. The platelets were broken by freezing in a dry ice-ethanol bath, followed by thawing in 24° C. water baths. The preparation was centrifugation (40,000 x g, 20 minutes, 4° C.) and the pellet resuspended in 10 mM Trizma 7.4, 20 mM CaCL2, 5 mg/ml human albumin. Protein concentration in the platelet membrane preparation was determined by the Lowry method [ref]. Aliquots of the membrane preparation were stored at -70° C. Each preparation was characterized for PAF receptor number and dissociation constant (Kd). In binding assays 5 μl of test compound, solubilzed in DMSO, was added to polypropylene tubes along with 0.75 nM [^3 H]PAF and 200 mcl [0.075 nM] of membranes and 95 μl 10 mM Trizma 7.4, 20 mM CaCL2, 5 mg/ml human albumin. Tubes were incubated for 30 minutes at 24° C. The incubation was terminated by adding 4 ml of ice-cold 10 mM Trizma DH 7.4, 20 mM CaCL2 and 20 mg/ml BSA prior to vacuum filtration using Whatman GF/C filters. Filters were prepared and counted for a scintillation counter. All DPM values were corrected for background and isotope decay. Triplicate determinations for single doses were averaged. The amount of non-specific binding was subtracted from all dose averages, giving an amount of specific binding in all cases. The IC50 values for compounds of the invention determined by the Allfit program using percent displacement data. Allfit is a `basic` computer program for simultaneous curve fitting of a family of signoidal dose-response curves using the four parameter logistic equation.

[2] = test system: PAF-induced aggregation of human platelets; test: Assay B: Human Platelet Aggregation Inhibition (PAF-induced aggregation in human platelet-rich plasma); format: cell-based; conditions: 37°
Description: Compounds of the invention were evaluated for their ability to inhibit PAF-induced aggregation of human platelets in a human-platelet-rich plasma. Venous blood was collected from donors who fasted for 8 hours and were instructed not to use antiinflammatory drugs for 2 weeks prior to blood draw. Blood was collected into syringes containing 0.1 ml of 3.8% [w/v] citrate and centrifuged in polypropylene tubes at 150xg for 20 minutes at room temperature. The platelet rich plasma [PRP] was collected and let sit for 20 minutes at room temperature. Platelet activating factor [PAF] was diluted in 0.9% NaCl with 0.25% bovine serum albumin. Silicon treated cuvettes with stir bars were placed in the 37° heating block of the platelet aggregometer [Bio/Data Corporation, Platelet Aggregation Profiler, Model PAP-4]. PRP and test compound were added to cuvettes and aggregation monitored for 10-15 seconds at 37° with stirring. PAF was added and aggregation monitored for an additional 3 minutes. Peak aggregation was considered the peak of the first aggregation wave usually 45-60 seconds after PAF addition. Inhibition of aggregation was determined by the following: 1-[(% aggregation in the presence of compound).div.(% maximal aggregation)]. A log/logit transformation was used to determine half maximal inhibitory concentration of a test compound [IC50 ].

[3] = target: T2, [^3 H]PAF receptors on human neutrophil membrane (Homo sapiens, UniProt P25105); test: Assay C: Human Neutrophil Receptor Binding (inhibition of specific [^3 H]PAF binding to human neutrophil membrane); conditions: human neutrophil membranes, 0.9 nM [^3 H]PAF, 30 minutes at 24°, pH 7.4
T2 construct: Human neutrophils were isolated from venous blood by dextran sedimentation; from tissue; host or cells: human neutrophils from venous blood (membrane preparation)
Description: Compounds of the invention were evaluated for their ability to inhibit PAF-induced specific binding of [^3 H]PAF to receptors on human neutrophil membrane. Human neutrophils were isolated from venous blood by dextran sedimentation followed by density gradient centrifugation using Ficoll-Hypaque [J. Biol. Chem., 254:7865-7869, 1979]. Residual red blood cells were removed by hypotonic lysis. Neutrophils were suspended in 50 mM Tris-HCl buffer, pH 7.7, and cells disrupted by sonication for 15 seconds on ice. Unbroken cells and nuclei were removed by slow speed centrifugation [1000xg, 10 min. 4°]. The resultant supernatant was centrifuged at 100,000xg for 60 minutes at 4°. The pellet was suspended in 10 mM Tris-HCl, pH 7.4, with 10 mM MgCl2. Protein content was determined by the method of Lowry [J. Biol. Chem., 193:265-275, 1951]. Membranes were characterized for the concentration of binding sites [Bmax] and affinity for the ligand [Kd] using [^3 H]PAF by Scatchard analysis. Binding assays were conducted by incubating 50 mcg of membranes with 0.9 nM [^3 H]PAF and test compounds in 10 mM Tris-HCl buffer, pH 7.4, containing 0.1% bovine serum albumin. Nonspecific binding was determined by the addition of 1 μM PAF. Binding assay were done for 30 minutes at 24°. The assay was terminated by filtration-through a Whatman GF/C glass filters and radioactivity determined by liquid scintillation counting.

T1 sequence (P25105 whole entry): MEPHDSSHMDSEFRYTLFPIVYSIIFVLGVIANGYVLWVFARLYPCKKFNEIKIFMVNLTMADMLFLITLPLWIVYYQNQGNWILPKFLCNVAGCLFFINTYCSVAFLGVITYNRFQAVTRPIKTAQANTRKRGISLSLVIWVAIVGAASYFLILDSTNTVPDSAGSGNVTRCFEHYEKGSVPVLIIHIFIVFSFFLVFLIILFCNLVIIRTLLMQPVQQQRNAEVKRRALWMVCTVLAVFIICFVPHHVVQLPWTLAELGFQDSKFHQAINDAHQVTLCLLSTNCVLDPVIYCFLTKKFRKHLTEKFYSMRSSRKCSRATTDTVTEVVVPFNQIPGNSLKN
T2 sequence (P25105 whole entry): as above

IC50 [1]	SMILES	also measured
1030 nM	COc1cc(C(=O)N(C2CCCC2)C2CCCC2)ccc1Cn1cnc2cccnc21 [Example 1]	
78 nM	COc1cc(C(=O)N(C2CCCC2)C2CCCC2)ccc1Cn1cnc2ncccc21 [Example 2, N, N-dicyclopentyl-4-(1H-imidazo[4,5-b]pyridin-1-ylmethyl)-3-methoxybenzamide]	IC50 [2]: 227 nM
2 nM	COc1cc(Cn2cnc3cccnc32)ccc1C(=O)N(C(C)C)C1CCCCC1 [Example 3, N-cyclohexyl-4-(3H-imidazo[4,5-b]pyridin-3-ylmethyl)-2-methoxy-N-(1-methylethyl)benzamide]	IC50 [2]: 7 nM; IC50 [3]: 0.5 nM
150 nM	COc1cc(Cn2cnc3ncccc32)ccc1C(=O)N(C(C)C)C1CCCCC1 [Example 4, N-cyclohexyl-4-(1H-imidazo[4,5-b]pyridin-1-ylmethyl)-2-methoxy-N-(1-methylethyl)benzamide]	
420 nM	COc1cc(C(=O)N(C(C)C)C2CCCCC2)ccc1Cn1cnc2cccnc21 [Example 5, N-cyclohexyl-4-(3H-imidazo[4,5-b]pyridin-3-ylmethyl)-3-methoxy-N-(1-methylethyl)benzamide]	
6 nM	COc1cc(C(=O)N(C(C)C)C2CCCCC2)ccc1Cn1cnc2ncccc21 [Example 6, N-cyclohexyl-4-(1H-imidazo[4,5-b]pyridin-1-ylmethyl)-3-methoxy-N-(1-methylethyl)benzamide]	IC50 [2]: 113 nM; IC50 [3]: 8 nM
73 nM	COc1cc(Cn2cnc3cccnc32)ccc1C(=O)N(C1CCCC1)C1CC(C)CC(C)C1 (stereo not shown) [Example 7, N-cyclopentyl-N-(3,5-dimethylcyclohexyl)-4-(3H-imidazo[4,5-b]pyridin-3-ylmethyl)-2-methoxybenzamide]	
35 nM	COc1cc(Cn2cnc3ncccc32)ccc1C(=O)N(C1CCCC1)C1CC(C)CC(C)C1 (stereo not shown) [Example 8, N-cyclopentyl-N-(3,5-dimethylcyclohexyl)-4-(1H-imidazo[4,5-b]pyridin-1-ylmethyl)-2-methoxybenzamide]	IC50 [2]: 7 nM; IC50 [3]: 23 nM
479 nM	Cc1cc(C(=O)N(C2CCCCC2)C2CCCC2)ccc1Cn1cnc2ncccc21 [Example 9, N-cyclohexyl-N-cyclopentyl-4-(1H-imidazo[4,5-b]pyridin-1-ylmethyl)-3-methylbenzamide]	
5240 nM	Cc1cc(C(=O)N(C2CCCCC2)C2CCCC2)ccc1Cn1cnc2cccnc21 [Example 10, N-cyclohexyl-N-cyclopentyl-4-(3H-imidazo[4,5-b]pyridin-3-ylmethyl)-3-methylbenzamide]	
9 nM	COc1cc(C(=O)N(C(C)C)C2CCCCC2)ccc1Cn1c(C)nc2ncccc21 [Example 11, N-cyclohexyl-3-methoxy-N-(1-methylethyl)-4-[(2-methyl-1H-imidazo[4,5-b]pyridin-1-yl)methyl]benzamide]	
1160 nM	COc1cc(C(=O)N(C(C)C)C2CCCCC2)ccc1Cn1c(C)nc2cccnc21 [Example 12, N-cyclohexyl-3-methoxy-N-(1-methylethyl)-4-[(2-methyl-3H-imidazo [4,5-b]pyridin-3-yl)methyl]benzamide]	
206 nM	COc1cc(Cn2cnc3ncccc32)ccc1C(=O)N(C1CCCCC1)C1CCCC1 [Example 13, N-cyclohexyl-N-cyclopentyl-4-(1H-imidazo[4,5-b]pyridin-1-ylmethyl)-2-methoxybenzamide]	
395 nM	COc1cc(C(=O)N(C(C)C)C2CCCCC2)ccc1Cn1c(-c2ccccc2Cl)nc2ncccc21 [Example 14, 4-[[2-(2-chlorophenyl)-1H-imidazo[4,5-b]pyridin-1-yl]methyl]-N-cyclohexyl-3-methoxy-N-(1-methylethyl)benzamide]	
574 nM	COc1cc(C(=O)N(C(C)C)C2CCCCC2)ccc1Cn1c(-c2ccccc2Cl)nc2cccnc21 [Example 15, 4-[[2-(2-chlorophenyl) -3H-imidazo[4,5-b]pyridin-3yl]methyl]-N-cyclohexyl-3-methoxy-N-(1-methylethyl)benzamide]	
6 nM	COc1cc(C(=O)N(C(C)C)C2CCCCC2)ccc1Cn1c(CO)nc2ncccc21 [Example 17, N-cyclohexyl-4-[[2-(hydroxymethyl)-1H-imidazo [4,5-b]pyridin-1-yl]methyl]-3-methoxy-N-(1-methylethyl)benzamide]	
11 nM	COc1cc(C(=O)N(C(C)C)C2CCCCC2)ccc1Cn1c(CO)nc2cccnc21 [Example 18, N-cyclohexyl-4-[[2-(hydroxymethyl)-3H-imidazo [4,5-b]pyridin-3-yl]methyl]-3-methoxy-N-(1-methylethyl)benzamide]	
3 nM	COc1cc(C(=O)N(C(C)C)C2CCCCC2)ccc1Cn1c(CN(C)C)nc2ncccc21 [Example 19, N-cyclohexyl-4-[[2-[(dimethylamino)methyl]-1H-imidazo[4,5-b]pyridin-1-yl]methyl]-3-methoxy-N-(1-methylethyl)benzamide]	
10 nM	COc1cc(C(=O)N(C(C)C)C2CCCCC2)ccc1Cn1c(CN(C)C)nc2cccnc21 [Example 20, N-cyclohexyl-4-[[2-[(dimethylamino)methyl]-3H-imidazo[4,5-b]pyridin-3-yl]methyl]-3-methoxy-N-(1-methylethyl)benzamide]	inhibition at 0.01 µM ([1]; at 10 nM, two-run average): 62%
9 nM	COCc1nc2ncccc2n1Cc1ccc(C(=O)N(C(C)C)C2CCCCC2)cc1OC [Example 21, N-cyclohexyl-3-methoxy-4-[[2-(methoxymethyl)-1H-imidazo [4,5-b]pyridin-1-yl]methyl]-N-(1-methylethyl)benzamide]	
88 nM	COCc1nc2cccnc2n1Cc1ccc(C(=O)N(C(C)C)C2CCCCC2)cc1OC [Example 22, N-cyclohexyl-3-methoxy-4-[[2-(methoxymethyl)-3H-imidazo[4,5-b]pyridin-3-yl]methyl]-N-(1-methylethyl)benzamide]	
13 nM	COc1cc(C(=O)N(C(C)C)C2CCCCC2)ccc1Cn1c(N(C)C)nc2ncccc21 [Example 23, N-cyclohexyl-4-[[2-(dimethylamino)-1H-imidazo[4,5-b]pyridin-1-yl]methyl]-3-methoxy-N-(1-methylethyl)benzamide]	

SMILES	IC50 [1]	also measured
COc1cc(C(=O)N(C(C)C)C2CCCCC2)ccc1Cn1c(CO[Si](C)(C)C(C)(C)C)nc2ncccc21 [Example 16, N-cyclohexyl-4-[[2-[[[(1,1-dimethyethyl)dimethylsilyl]oxy]methyl]-1H-imidazo[4,5-b]pyridin-1-yl]methyl]-3-methoxy-N-(1-methylethyl)benzamide]	51 nM	
